Values quoted from earlier work as cited in patent publication US20070071706A1, “Lipodissolving dermatological topical preparation” (priority 2005, published 2007).

Conditions: used as transdermal permeability enhancer / carrier; delivered substance erythromycin; rats

For `CC(O)CO` (centres unmarked) [propylene glycol], the “local accumulation in the subcutaneous tissue of the substance being transdermally delivered” value is listed as “very negligible and short living subcutaneous accumulation” and the “systemic absorption of the substance being transdermally delivered” value is listed as “good systemic absorption”.
